Source: article PMC10150354, “Linearization of the Brevicidine and Laterocidine Lipopeptides Yields Analogues That Retain Full Antibacterial Activity” (Journal of Medicinal Chemistry, 2023)
≈ marks a conversion by molar mass, not a printed value. *1 amine or outer side, *2 acyl side, *3 side chain or, on linkers, in order; H or OH if unused. Where a SMILES comes first, the peptide text is derived from it. [ ]: non-standard residue; d: D form. The star is where a group is joined. ξ: configuration not given here. X1 = C[C@@H](N=[N+]=[N-])[C@H](N[*:1])C(=O)[*:2]; Octanoyl(7-Me) = CC(C)CCCCCC(=O)*; Hexanoyl(4ξ-Me) = CCC(C)CCC(=O)*; dOrn = NCCC[C@@H](N)C(=O)O; Orn = NCCC[C@H](N)C(=O)O

How the values were obtained:
[1] = system: E. coli (MCR-1); format: cell-based, Escherichia coli; conditions: microbroth dilution per CLSI, MHB, 18 h at 37 °C, visual inspection, three technical replicates, E. coli 25922 carrying mcr-1
Method: (§1) Linear laterocidine (LL-OH, 4) and linear brevicidine (LB-OH, 5) were first synthesized by Fmoc SPPS, starting from 2-chlorotrityl (2-CT) chloride resin. The antibacterial activity of these peptides was then compared to brevicidine (1) and laterocidine (2) using minimum inhibitory concentration (MIC)/microbroth dilution assays (Table 1). The MICs of all peptides were determined against a panel of Gram-negative and Gram-positive ESKAPE pathogens. Additionally, a strain of E. coli carrying the mcr-1 gene was included in the panel. The mcr-1 gene is a transferrable plasmid that confers resistance against colistin, a last-resort antibiotic for Gram-negative infections, by reducing the overall negative charge of lipopolysaccharide (LPS) through modification of lipid A with phosphoethanolamine. The propensity for cationic antibiotics to bind to the cell membrane is therefore reduced. This gene has been observed in more than 27 bacterial species over six continents.[26] The spread of the mcr-1 gene could render colistin ineffectual; therefore, novel antibacterials are urgently required to overcome this form of resistance.
(§2) All minimum inhibitory concentrations (MICs) were determined according to Clinical and Laboratory Standards Institute (CLSI) guidelines. Blood agar plates were inoculated with glycerol stocks of E. coli ATCC 25922, K. pneumoniae ATCC 13883, A. baumannii ATCC 17961, P. aeruginosa PAO1, and S. aureus USA300. The inoculated agar plates were then incubated for 16 h at 37 °C. Individually grown colonies were subsequently used to inoculate 5 mL aliquots of TSB that were then incubated at 37 °C with shaking at 220 rpm. E. coli 25922 MCR-1 glycerol stock was used to inoculate 5 mL of TSB supplemented with kanamycin that was then incubated for 16 h at 37 °C with shaking at 220 rpm. The next day the culture was diluted 100-fold in TSB supplemented with kanamycin and incubated at 37 °C with shaking at 220 rpm. In parallel, the lipopeptide antibiotics DMSO stocks to be assessed were serially diluted with MHB in polypropylene 96-well plates (50 μL in each well). Colistin sulfate stocks were dissolved in water before being diluted with MHB. Aliquots of the inoculated TSB were incubated until an OD600 of around 0.5 was reached. The bacterial suspensions were then diluted with MHB (2 × 10^5 CFU/mL) and added to the microplates containing the test compounds (50 μL to each well). The well plates were sealed with an adhesive membrane and after 18 h of incubation at 37 °C with shaking at 600 rpm, the wells were visually inspected for bacterial growth. MIC values reported are based on three technical replicates and defined as the lowest concentration of the compound that prevented visible growth of bacteria.

[2] = system: E. coli ATCC 25922; format: cell-based, Escherichia coli; conditions: for MIC (µg/mL) against E. coli (ATCC 25922): (Supplement 2); for Antibacterial activity (MIC) E. coli ATCC 25922: microbroth dilution per CLSI, MHB, 18 h at 37 °C, visual inspection, three technical replicates
Method: as §1, §2

[3] = system: K. pneumoniae ATCC 13883; format: cell-based, Klebsiella pneumoniae; conditions: microbroth dilution per CLSI, MHB, 18 h at 37 °C, visual inspection, three technical replicates
Method: as §1, §2

[4] = system: A. baumannii ATCC 17961; format: cell-based, Acinetobacter baumannii; conditions: microbroth dilution per CLSI, MHB, 18 h at 37 °C, visual inspection, three technical replicates
Method: as §1, §2

[5] = system: P. aeruginosa PAO1; format: cell-based, Pseudomonas aeruginosa; conditions: microbroth dilution per CLSI, MHB, 18 h at 37 °C, visual inspection, three technical replicates
Method: as §1, §2

[6] = system: S. aureus USA300; format: cell-based, Staphylococcus aureus; conditions: microbroth dilution per CLSI, MHB, 18 h at 37 °C, visual inspection, three technical replicates
Method: as §1, §2

Compound | Antibacterial activity (MIC) E. coli (MCR-1) [1] | MIC (µg/mL) against E. coli (ATCC 25922) [2] | Antibacterial activity (MIC) E. coli ATCC 25922 [2] | Antibacterial activity (MIC) K. pneumoniae ATCC 13883 [3] | Antibacterial activity (MIC) A. baumannii ATCC 17961 [4] | Antibacterial activity (MIC) P. aeruginosa PAO1 [5] | Antibacterial activity (MIC) S. aureus USA300 [6]
CCC(C)CCC(=O)N[C@H](CC(N)=O)C(=O)N[C@H](Cc1ccc(O)cc1)C(=O)N[C@H](Cc1c[nH]c2ccccc12)C(=O)N[C@H](CCCN)C(=O)N[C@@H](CCCN)C(=O)NCC(=O)N[C@H](CCCN)C(=O)N[C@@H](Cc1c[nH]c2ccccc12)C(=O)N[C@@H](CCC(N)=O)C(=O)N[C@H](C(=O)NCC(N)=O)[C@@H](C)CC (stereo partly drawn) [Δ12LB (Gln9)-NH2 (59)] ({Hexanoyl(4ξ-Me)}-[dN][dY][dW][dOrn][Orn]G[dOrn]WQIG-NH2) | 8 µg/mL | 8 µg/mL (≈ 5.42 µM) | 8 µg/mL | 16 µg/mL | 16 µg/mL | 2 µg/mL | >32 µg/mL
CC[C@H](C)[C@H](NC(=O)[C@@H](NC(=O)[C@H](Cc1c[nH]c2ccccc12)NC(=O)[C@@H](CCCN)NC(=O)[C@H](C)NC(=O)[C@H](CCCN)NC(=O)[C@@H](CCCN)NC(=O)[C@@H](Cc1c[nH]c2ccccc12)NC(=O)[C@@H](Cc1ccc(O)cc1)NC(=O)[C@@H](CO)NC(=O)CCCCCC(C)C)[C@@H](C)O)C(=O)N[C@@H](CC(N)=O)C(=O)NCC(=O)NCC(N)=O [LL(Ala6)-NH2 (34)] ({Octanoyl(7-Me)}-[dS][dY][dW][dOrn][Orn]A[dOrn]WTINGG-NH2) | 8 µg/mL | 4 to 8 µg/mL | 4 to 8 µg/mL | 8 µg/mL | 16 µg/mL | 16 µg/mL | >32 µg/mL
CC[C@H](C)[C@H](NC(=O)[C@@H](NC(=O)[C@H](Cc1c[nH]c2ccccc12)NC(=O)[C@@H](CCCN)NC(=O)CNC(=O)[C@H](CCCN)NC(=O)[C@@H](CCCN)NC(=O)[C@@H](Cc1c[nH]c2ccccc12)NC(=O)[C@@H](Cc1ccc(O)cc1)NC(=O)[C@@H](CO)NC(=O)CCCCCC(C)C)[C@@H](C)O)C(=O)N[C@@H](C)C(=O)NCC(=O)NCC(N)=O [LL(Ala11)-NH2 (39)] ({Octanoyl(7-Me)}-[dS][dY][dW][dOrn][Orn]G[dOrn]WTIAGG-NH2) | 8 µg/mL | – | 8 µg/mL | 8 µg/mL | 8 µg/mL | 4 µg/mL | >32 µg/mL
CCC(C)CCC(=O)N[C@H](CC(N)=O)C(=O)N[C@H](Cc1ccc(O)cc1)C(=O)N[C@H](Cc1c[nH]c2ccccc12)C(=O)N[C@H](CCCN)C(=O)N[C@@H](CCCN)C(=O)NCC(=O)N[C@H](CCCN)C(=O)N[C@@H](Cc1c[nH]c2ccccc12)C(=O)N[C@H](C(=O)N[C@H](C(=O)NCC(N)=O)[C@@H](C)CC)[C@@H](C)N=[N+]=[N-] (stereo partly drawn) [Δ12LB (MeAbu9)-NH2 (60)] ({Hexanoyl(4ξ-Me)}-[dN][dY][dW][dOrn][Orn]G[dOrn]W[X1]IG-NH2) | 4 µg/mL | 8 µg/mL (≈ 5.42 µM) | 4 µg/mL | 2 µg/mL | 2 µg/mL | 4 µg/mL | >32 µg/mL
CC(C)CCCCCC(=O)N[C@H](CO)C(=O)N[C@H](Cc1ccc(O)cc1)C(=O)N[C@H](Cc1c[nH]c2ccccc12)C(=O)N[C@H](CCCN)C(=O)N[C@@H](CCCN)C(=O)NCC(=O)N[C@H](CCCN)C(=O)N[C@@H](Cc1c[nH]c2ccccc12)C(=O)N[C@H](C(N)=O)[C@@H](C)O [Δ10–13LL-NH2 (14)] ({Octanoyl(7-Me)}-[dS][dY][dW][dOrn][Orn]G[dOrn]WT-NH2) | 32 µg/mL | – | >32 µg/mL | >32 µg/mL | 32 µg/mL | >32 µg/mL | >32 µg/mL
CC[C@H](C)[C@H](NC(=O)[C@@H](NC(=O)[C@H](C)NC(=O)[C@@H](CCCN)NC(=O)CNC(=O)[C@H](CCCN)NC(=O)[C@@H](CCCN)NC(=O)[C@@H](Cc1c[nH]c2ccccc12)NC(=O)[C@@H](Cc1ccc(O)cc1)NC(=O)[C@@H](CO)NC(=O)CCCCCC(C)C)[C@@H](C)O)C(=O)N[C@@H](CC(N)=O)C(=O)NCC(=O)NCC(N)=O [LL(Ala8)-NH2 (36)] ({Octanoyl(7-Me)}-[dS][dY][dW][dOrn][Orn]G[dOrn]ATINGG-NH2) | >32 µg/mL | – | >32 µg/mL | >32 µg/mL | >32 µg/mL | 32 µg/mL | >32 µg/mL
CCC(C)CCC(=O)N[C@H](CC(N)=O)C(=O)N[C@H](Cc1ccc(O)cc1)C(=O)N[C@H](Cc1c[nH]c2ccccc12)C(=O)N[C@H](CCCN)C(=O)N[C@@H](CCCN)C(=O)NCC(=O)N[C@H](CCCN)C(=O)N[C@@H](Cc1c[nH]c2ccccc12)C(=O)N[C@@H](CC(=O)O)C(=O)N[C@H](C(=O)NCC(N)=O)[C@@H](C)CC (stereo partly drawn) [Δ12LB (Asp9)-NH2 (63)] ({Hexanoyl(4ξ-Me)}-[dN][dY][dW][dOrn][Orn]G[dOrn]WDIG-NH2) | >32 µg/mL | 4 µg/mL (≈ 2.73 µM) | >32 µg/mL | >32 µg/mL | >32 µg/mL | 4 µg/mL | >32 µg/mL
CC[C@H](C)[C@H](NC(=O)[C@H](Cc1c[nH]c2ccccc12)NC(=O)[C@H](Cc1c[nH]c2ccccc12)NC(=O)[C@@H](CCCN)NC(=O)CNC(=O)[C@H](CCCN)NC(=O)[C@@H](CCCN)NC(=O)[C@@H](Cc1c[nH]c2ccccc12)NC(=O)[C@@H](Cc1ccc(O)cc1)NC(=O)[C@@H](CO)NC(=O)CCCCCC(C)C)C(=O)N[C@@H](CC(N)=O)C(=O)NCC(=O)NCC(N)=O [LL(Trp9)-NH2 (45)] ({Octanoyl(7-Me)}-[dS][dY][dW][dOrn][Orn]G[dOrn]WWINGG-NH2) | 4 µg/mL | 4 µg/mL (≈ 2.34 µM) | 4 µg/mL | 4 µg/mL | 4 µg/mL | 16 µg/mL | >32 µg/mL
CC[C@H](C)[C@H](NC(=O)[C@H](CCC(N)=O)NC(=O)[C@H](Cc1c[nH]c2ccccc12)NC(=O)[C@@H](CCCN)NC(=O)CNC(=O)[C@H](CCCN)NC(=O)[C@@H](CCCN)NC(=O)[C@@H](Cc1c[nH]c2ccccc12)NC(=O)[C@@H](Cc1ccc(O)cc1)NC(=O)[C@@H](CO)NC(=O)CCCCCC(C)C)C(=O)N[C@@H](CC(N)=O)C(=O)NCC(=O)NCC(N)=O [LL(Gln9)-NH2 (48)] ({Octanoyl(7-Me)}-[dS][dY][dW][dOrn][Orn]G[dOrn]WQINGG-NH2) | 8 µg/mL | 4 µg/mL (≈ 2.43 µM) | 4 µg/mL | 4 µg/mL | 8 µg/mL | 4 µg/mL | >32 µg/mL
